Drawing on patent US12448388B2, “PRMT5 inhibitors and uses thereof” (Gilead Sciences, Inc., priority 2023, dated 2025), this text covers CC50 for 29 compounds.

The test system of the assay is HCT116 MTAP-deleted cell lines. Briefly: Cell viability assay (CellTiter-Glo, 7 days), HCT116 MTAP-deleted. Conditions: Homo sapiens, HCT-116, HCT116 MTAP-deleted, class symbols, read-out: CC50. It is filed as cell-based. Summed up: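 Dose-response, PRMT5 inhibitors from DMSO serial dilution, pre-spotted; cells seeded onto compound plates. 7 d, 37 °C/5% CO2/90% RH. Readout: CTG luminescence → CC50.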

By CC50 is commonly meant the concentration giving 50% cytotoxicity.

Where two headings read alike, the source gives them in different places. Where only a bound is given, the exact number is not on record here.

As for `CN(C(=O)c1cc2c(cc1F)nc(N)c1cncn12)[C@@H]1COc2cc(Br)ccc21` [Ff-94, (S)-4-amino-N-(6-bromo-2,3-dihydrobenzofuran-3-yl)-7-fluoro-N-methylimidazo[1,5-a]quinoxaline-8-carboxamide], the CC50 (cell viability) was less than 0.1 µM.

Turning to `CN(C(=O)c1ccc2nc(N)c3cncn3c2c1)[C@@H]1COc2cc(C#CC(C)(C)S(C)(=O)=O)ccc21` [Ff-526, (S)-4-amino-N-methyl-N-(6-(3-methyl-3-(methylsulfonyl)but-1-yn-1-yl)-2,3-dihydrobenzofuran-3-yl)imidazo[1,5-a]quinoxaline-8-carboxamide], the CC50 (cell viability assay) lay in the range of 0.1 to 1 µM.

In the case of `Cc1ncc2c3cc(C(=O)N(Cc4ccc(C(F)(F)F)cn4)[C@H](C)c4ncccn4)c(F)cc3nc(N)n12` [Fg-17, (R)-5-amino-8-fluoro-3-methyl-N-(1-(pyrimidin-2-yl)ethyl)-N-((5-(trifluoromethyl)pyridin-2-yl)methyl)imidazo[1,5-c]quinazoline-9-carboxamide], the CC50 (cell viability assay) is less than 0.1 µM.

`Cc1ncn2c1c(N)nc1cc(F)c(C(=O)N(C)[C@@H]3CCc4nc(C(F)(F)F)ccc43)cc12` [Ff-316, (R)-4-amino-7-fluoro-N,3-dimethyl-N-(2-(trifluoromethyl)-6,7-dihydro-5H-cyclopenta[b]pyridin-5-yl)imidazo[1,5-a]quinoxaline-8-carboxamide]: the CC50 (cell viability) is less than 0.1 µM.

Regarding `CN(C(=O)c1ccc2nc(N)c3cncn3c2c1)C1CCc2nc(Cl)sc21` (centres unmarked) [Ff-15, 4-amino-N-(2-chloro-5,6-dihydro-4H-cyclopenta[d]thiazol-6-yl)-N-methylimidazo[1,5-a]quinoxaline-8-carboxamide], the CC50 (cell viability) was greater than 1 µM.

`Cc1ncc2c(N)nc3cc(F)c(C(=O)N4CC[C@H]5C[C@@H]4c4ccc(C(F)(F)F)nc4O5)cc3n12` [Ff-627, (4-amino-7-fluoro-1-methylimidazo[1,5-a]quinoxalin-8-yl)((2S,6R)-9-(trifluoromethyl)-3,4-dihydro-2H-2,6-methanopyrido[2,3-b][1,5]oxazocin-5(6H)-yl)methanone]: the CC50 (cell viability assay) was less than 0.1 µM.

Regarding `Nc1nc2cc(F)c(C(=O)N3CC4CCC(C4)C3c3ccc(C(F)(F)F)cn3)cc2n2cncc12` (centres unmarked) [Ff-512, (4-amino-7-fluoroimidazo[1,5-a]quinoxalin-8-yl)(2-(5-(trifluoromethyl)pyridin-2-yl)-3-azabicyclo[3.2.1]octan-3-yl)methanone], the CC50 (cell viability assay) fell in the range of 0.1 to 1 µM.

Take `CN(C(=O)c1cc2c(cc1F)nc(N)c1cncn12)[C@@H]1COc2cc(C34CC(F)(C3)C4)ccc21` [Ff-453, 4-amino-7-fluoro-N-[(3S)-6-(3-fluoro-1-bicyclo[1.1.1]pentanyl)-2,3-dihydrobenzofuran-3-yl]-N-methyl-imidazo[1,5-a]quinoxaline-8-carboxamide]: for the setting “cell viability assay”, the CC50 is less than 0.1 µM.

In the case of `Cn1cc(N(Cc2ncc(C(F)(F)F)cc2F)C(=O)c2cc3c(cc2F)nc(N)c2cncn23)cn1` [Ff-290, 4-amino-7-fluoro-N-((3-fluoro-5-(trifluoromethyl)pyridin-2-yl)methyl)-N-(1-methyl-1H-pyrazol-4-yl)imidazo[1,5-a]quinoxaline-8-carboxamide], where the note is “cell viability”, the CC50 was less than 0.1 µM.

For the compound `CC(C)N(Cc1ccc(-c2cnn(-c3cccnc3)c2)cc1F)C(=O)c1cc2c(cc1F)nc(N)c1cncn12` [Ff-148, 4-amino-7-fluoro-N-(2-fluoro-4-(1-(pyridin-3-yl)-1H-pyrazol-4-yl)benzyl)-N-isopropylimidazo[1,5-a]quinoxaline-8-carboxamide], for the setting “cell viability”, the CC50 was less than 0.1 µM.

In the case of `CN(C(=O)c1cc2c(cc1F)nc(N)c1cncn12)[C@@H]1COc2cc([C@H]3C[C@@H]3C#N)ccc21` (single isomer, unassigned) [Ff-481], for the setting “cell viability assay”, the CC50 is less than 0.1 µM.

As for `CN(C(=O)c1cc2c(cc1F)nc(N)c1cncn12)C1CCc2nc(Cl)ccc21` (centres unmarked) [Ff-208, 4-amino-N-(2-chloro-6,7-dihydro-5H-cyclopenta[b]pyridin-5-yl)-7-fluoro-N-methylimidazo[1,5-a]quinoxaline-8-carboxamide], the CC50 (cell viability) lay within 0.1 to 1 µM.

For the compound `CN(C(=O)c1cc2c(cc1F)nc(N)c1cncn12)[C@@H]1COc2cc([C@H]3C[C@@H]3C(F)F)ccc21` (single isomer, unassigned) [Ff-505], for the setting “cell viability assay”, the CC50 was less than 0.1 µM.

On to `Nc1nc2cc(F)c(C(=O)N3CC[C@H]4C[C@@H]3c3ccc(C(F)(F)F)nc34)cc2n2cncc12` (racemic) [Ff-90, Rac-(4-amino-7-fluoroimidazo[1,5-a]quinoxalin-8-yl)((5R,9S)-2-(trifluoromethyl)-5,7,8,9-tetrahydro-6H-5,9-methanopyrido[3,2-c]azepin-6-yl)methanone], for which the CC50 (cell viability) lay in the range of 0.1 to 1 µM.

As to `[2H]C([2H])([2H])c1ncn2c1c(N)nc1cc(F)c(C(=O)N(C)[C@@H]3COc4cc(C(F)(F)F)ccc43)cc12` [Ff-497, (S)-4-amino-7-fluoro-N-methyl-3-(methyl-d3)-N-(6-(trifluoromethyl)-2,3-dihydrobenzofuran-3-yl)imidazo[1,5-a]quinoxaline-8-carboxamide], the CC50 (cell viability assay) is less than 0.1 µM.

Consider `CN(C(=O)c1cc2c(cc1F)nc(N)c1cncn12)C1COc2c1ccc1c2OC(F)(F)O1` (centres unmarked) [Ff-156, 4-amino-N-(2,2-difluoro-6,7-dihydro-[1,3]dioxolo[4,5-g]benzofuran-6-yl)-7-fluoro-N-methylimidazo[1,5-a]quinoxaline-8-carboxamide], for which, where the note is “cell viability”, the CC50 fell in the range of 0.1 to 1 µM.

With `Cc1ncn2c1c(N)nc1cnc(C(=O)N3C[C@H](C)C[C@@H]4Oc5c(ccc(C(F)(F)F)c5F)[C@@H]43)cc12` [Fg-63, (4-amino-3-methylimidazo[1,5-a]pyrido[3,4-e]pyrazin-8-yl)((3R,4aS,9bS)-6-fluoro-3-methyl-7-(trifluoromethyl)-3,4,4a,9b-tetrahydrobenzofuro[3,2-b]pyridin-1(2H)-yl)methanone], the CC50 (cell viability assay) was less than 0.1 µM.

In the case of `CN(C(=O)c1cc2c(cc1F)nc(N)c1cncn12)[C@@H]1COc2cc(-c3ccc(C(F)(F)F)cc3)ccc21` [Ff-230, (S)-4-amino-7-fluoro-N-methyl-N-(6-(4-(trifluoromethyl)phenyl)-2,3-dihydrobenzofuran-3-yl)imidazo[1,5-a]quinoxaline-8-carboxamide], under “cell viability”, the CC50 lay within 0.1 to 1 µM.

Turning to `Cc1ncn2c1c(N)nc1cc(F)c(C(=O)N3CC(C)(C)C[C@@H]4Oc5nc(C(F)(F)F)ccc5[C@@H]43)cc12` (racemic) [Ff-385, Rac-(4-amino-7-fluoro-3-methylimidazo[1,5-a]quinoxalin-8-yl)((4aS,9bS)-3,3-dimethyl-7-(trifluoromethyl)-3,4,4a,9b-tetrahydrofuro[2,3-b:4,5-b′]dipyridin-1(2H)-yl)methanone], the CC50 (cell viability assay) is less than 0.1 µM.

With `CN(C(=O)c1cc2c(cc1F)nc(N)c1cncn12)[C@@H]1COc2cc(C3=CCOC3(C)C)ccc21` [Ff-485, (S)-4-amino-N-(6-(2,2-dimethyl-2,5-dihydrofuran-3-yl)-2,3-dihydrobenzofuran-3-yl)-7-fluoro-N-methylimidazo[1,5-a]quinoxaline-8-carboxamide], where the note is “cell viability assay”, the CC50 is less than 0.1 µM.

On to `Nc1nc2cc(F)c(C(=O)N3C[C@@H](F)C[C@@H]4Oc5cc(C(F)(F)F)ccc5[C@@H]43)cc2n2cncc12` [Ff-120, (4-amino-7-fluoroimidazo[1,5-a]quinoxalin-8-yl)((3S,4aS,9bS)-3-fluoro-7-(trifluoromethyl)-3,4,4a,9b-tetrahydrobenzofuro[3,2-b]pyridin-1(2H)-yl)methanone], for which the CC50 (cell viability) is less than 0.1 µM.

Regarding `Nc1nc2cc(F)c(C(=O)N(Cc3ccc(F)cc3Cl)C3CCC3)cc2n2cncc12` [Ff-73, 4-amino-N-(2-chloro-4-fluorobenzyl)-N-cyclobutyl-7-fluoroimidazo[1,5-a]quinoxaline-8-carboxamide], the CC50 (cell viability) fell in the range of 0.1 to 1 µM.

As for `CN(C(=O)c1cc2c(cc1F)nc(N)c1cncn12)C1CCc2cc(C(F)(F)F)ccc21` (centres unmarked) [Ff-309, 4-amino-7-fluoro-N-methyl-N-(5-(trifluoromethyl)-2,3-dihydro-1H-inden-1-yl)imidazo[1,5-a]quinoxaline-8-carboxamide], the CC50 (cell viability) is less than 0.1 µM.

Turning to `C[C@@H]1CN(C(=O)c2cc3c(cc2F)nc(N)c2cncn23)[C@@H](c2ccc(C(F)(F)F)cn2)CO1` [Ff-129, (4-amino-7-fluoroimidazo[1,5-a]quinoxalin-8-yl)((2R,5S)-2-methyl-5-(5-(trifluoromethyl)pyridin-2-yl)morpholino)methanone], where the note is “cell viability”, the CC50 was less than 0.1 µM.

`Cc1ncc2c(N)nc3cc(F)c(C(=O)N(Cc4ccc(C(F)(F)F)cn4)C4(C)CC4)cc3n12` [Ff-589, 4-amino-7-fluoro-1-methyl-N-(1-methylcyclopropyl)-N-((5-(trifluoromethyl)pyridin-2-yl)methyl)imidazo[1,5-a]quinoxaline-8-carboxamide]: the CC50 (cell viability assay) is less than 0.1 µM.

On to `C[C@@H]1CC[C@@H]2Oc3cc(C(F)(F)F)ccc3[C@@H]2N1C(=O)c1cc2c(cn1)nc(N)c1cncn12` (racemic) [Ff-106, Rac-(4-aminoimidazo[1,5-a]pyrido[3,4-e]pyrazin-8-yl)((2R,4aS,9bS)-2-methyl-7-(trifluoromethyl)-3,4,4a,9b-tetrahydrobenzofuro[3,2-b]pyridin-1(2H)-yl)methanone], for which the CC50 (cell viability) is less than 0.1 µM.

As for `C[C@@H]1CC[C@@H]2Oc3cc(OC(F)(F)F)ccc3[C@@H]2N1C(=O)c1cc2c(cc1F)nc(N)c1cncn12` (single isomer, unassigned) [Ff-491], where the note is “cell viability assay”, the CC50 is less than 0.1 µM.

Turning to `Nc1nc2ccc(C(=O)N(Cc3ccc(C(F)(F)F)cc3F)C3CCC3)cc2n2cncc12` [Ff-408, 4-amino-N-cyclobutyl-N-[[2-fluoro-4-(trifluoromethyl)phenyl]methyl]imidazo[1,5-a]quinoxaline-8-carboxamide], for the setting “cell viability assay”, the CC50 was less than 0.1 µM.

For `CN(C(=O)c1cc2c(cc1F)nc(N)c1cncn12)C1CCc2sccc21` (centres unmarked) [Ff-426, 4-amino-N-(5,6-dihydro-4H-cyclopenta[b]thiophen-4-yl)-7-fluoro-N-methyl-imidazo[1,5-a]quinoxaline-8-carboxamide], the CC50 (cell viability assay) lay in the range of 0.1 to 1 µM.
